This is an account of results in publication PMC4919066 (PLoS Pathogens, 2016).

Where a name gives a salt, the structure may show the parent alone.

The target of one data set is RPS14 (Homo sapiens, UniProt P62263). Description: RPS14 nuclear localization, confocal microscopy. Particulars: emetine 75 nM, infected high-density cells. Format: cell-based. As to the method: Cells were fixed with 3.7% paraformaldehyde for 20 min at room temperature, permeabilized with ice cold methanol for 10 min at -20°C and blocked with 5% bovine serum albumin in 0.5% Tween-20 for 20 min at room temperature. Cells were incubated with primary antibodies at 4°C overnight, washed and incubated with fluorescently-labeled secondary antibodies for 2 h at 37°C. Fluorescence microscopy was performed using a confocal laser scanning microscope (Nikon EZ C1). All images were captured at 60X magnification and processed under identical conditions with constant parameters (including scan speed and excitation and emission wavelengths) using Nikon EZ C1 software. Data analysis (percent nuclear localization) was performed by NIS-Elements software (Nikon) for a minimum of 40 cells in the high-density and 25 cells in the low-density samples from two fields per condition.

Data set [1] deals with protein synthesis in HFFs. Description: Translation inhibition assay. Format: cell-based, human. The following applies: nM concentrations, non-infected or HCMV-infected cells, 24 h. As for the experimental part: […] HFFs were seeded in a 96-well black, clear bottom tissue culture plate. […] A protein synthesis assay kit (Cayman Chemical, Ann Arbor, Michigan) was used according to manufacturer's protocol to quantify emetine-mediated translation inhibition using a fluorescence based assay.

Data set [2] relates to MCMV. As to the method: For infection experiments BALB/c mice, 4–6 weeks old, were purchased from Harlan Laboratories (Indianapolis, Indiana). The Animal Care and Use Committee of Johns Hopkins University approved the experimental procedures. […] Mice were infected intraperitoneally with 10^6 PFU/mice (0.1 mL in 0.8% saline). Control mice received 0.1 ml of saline intraperitoneally. […] GCV was administered intraperitoneally twice daily. […] Control and infected mice received equivalent volumes of saline. Mice were sacrificed at day 14 after infection. Blood samples were collected by cardiac puncture. Salivary glands and liver were harvested and stored at -80°C. Organs were homogenized in DMEM with 4% FBS at a final concentration of 100 mg/mL. Two million MEFs were seeded into 24-well plates. From each sample, 5% of the salivary gland homogenate or 10% of the liver homogenate was used for infection of MEFs in triplicates. Plaques were counted after three days. Whole blood viral load was measured at day 14 by real-time PCR of the glycoprotein B (gB) gene. DNA was extracted using the DNA blood mini kit (Qiagen, Georgetown, MD).

Data set [3] concerns HCMV proteins IE1/2, UL44 and pp65. Description: Western blot of viral proteins. Type of data set: cell-based, Human Cytomegalovirus. Particulars: emetine 75 nM, 72 hpi. The text has this: Cell lysates were quantified for protein content using bicinchoninic acid (BCA) protein assay kit (Pierce Chemical, Rockford, IL). Equivalent amount of proteins were used for Western blot analysis as described previously (11). Protein bands were visualized by chemiluminescence using Western Blotting Luminol Reagent (Santa Cruz Biotechnology, Santa Cruz, CA). The following antibodies were used for detection of HCMV proteins: mouse anti-IE1 and IE2, (MAb810); mouse anti-UL44 (Santa Cruz biotechnology); mouse monoclonal anti-pp65 (Vector laboratories, Burlingame, CA); mouse monoclonal anti-β-actin antibody (Millipore, Billerica, MA); rabbit polyclonal anti-RPS14 and mouse monoclonal anti-MDM2 (AbCam, Cambridge, UK), mouse monoclonal anti-p53 (Santa Cruz); horseradish peroxidase (HRP)-conjugated goat anti-rabbit IgG (Cell Signaling); and HRP-conjugated sheep anti-mouse IgG, (GE Healthcare, Waukesha, WI). For detection of co-immunoprecipitated proteins, protein A-HRP conjugate (Cell Signaling Technologies, Beverly, MA) was used as secondary antibody to eliminate the interfering IgG bands.

The test system of data set [4] is MCMV. Kind of data set: MCMV plaque reduction assay in MEFs. Type of data set: cell-based, mouse CMV. As for the experimental part:
The pp28-luciferase HCMV Towne and a GCV-resistant pp28-luciferase were used. The recombinant viruses express luciferase under the control of the late CMV gene promoter, pp28. Luciferase expression is activated 48–72 hours post infection (hpi). The recombinant viruses provide a highly-sensitive reporter system which correlates with plaque reduction assay. The Towne HCMV strain (ATCC VR-977) was used for plaque reduction, quantitative reverse transcriptase PCR (qRT-PCR), and immunoprecipitation assays. Human herpes virus strains were: luciferase HSV1- KOS/Dlux/oriS [52] and clinical isolates of HSV2. The clinical isolates were provided by the clinical microbiology laboratory with no identifiers that can link to a specific subject. Murid Herpesvirus (MCMV: ATCC VR-1399) was used for infection of mouse embryonic fibroblasts (MEFs) and mice.
Human Foreskin Fibroblasts (HFFs) passage 12–16 (ATCC, CRL-2088) and mouse embryonic fibroblasts (MEFs) passage 9–14 (ATCC, CRL-1658) were grown in Dulbecco's Modified Eagle Medium (DMEM) containing 10% fetal bovine serum (FBS) (Gibco, Carlsbad, CA) in a 5% CO2 incubator at 37°C. Infection with HCMV or HSV was performed in HFFs, and infection with mouse CMV was performed in MEFs. For HCMV, cells were seeded in either a 96-well plate or 100 mm culture plates (Corning Costar, Sigma Aldrich) at 0.5 or 2 million cells /plate. Following 90 minute adsorption, media was removed and cells were washed with PBS. Media containing 4% FBS and compounds were added to each well. Infected treated HFFs were collected at 72 hpi and lysates were assayed for luciferase activity using a luciferase assay kit (Promega, Madison, WI) on GloMax-Multi+ Detection System (Promega). In second cycle assays, supernatants were collected from all conditions of the first cycle at 96 hpi and used for infection of fresh HFFs in 96-well plates. Luciferase activity was measured 72 h following second cycle infection. […] After incubation at 37°C for 10 days (for HCMV), 3 days for MCMV or 2 days (for HSV), the overlay was removed and plaques were counted after crystal violet staining.
On the technique in general: In a plaque reduction assay, fewer plaques than in the control indicate reduced infectivity or spread.

Data set [5] in a line: Cell viability, MTT-based colorimetric assay. The following applies: human, non-infected human foreskin fibroblasts (HFFs), cell viability after 72 h. As to the method: Cell viability was determined by an MTT-based colorimetric assay (Sigma-Aldrich), and performed at the same time points as the antiviral assay.
Where [6] appears, read: all treatment regimens (0.1 or 1 mg/kg oral, from 24 or 72 hpi), day 14.

Usually EC50 stands for the concentration that produces a half-maximal response. Broadly, the CC50 is the concentration at which the toxic effect on the cells reaches its halfway point. A low value points to greater toxicity to the cells.

With `CC[C@H]1CN2CCc3cc(OC)c(OC)cc3[C@@H]2C[C@@H]1C[C@H]1NCCc2cc(OC)c(OC)cc21` [emetine, emetine dihydrochloride hydrate], the “nuclear localization of RPS14” value at RPS14 (24 hpi) is on record as 66%. Besides, at RPS14 (72 hpi), the “nuclear localization of RPS14” value is given as 11%. Further, the “inhibition of protein synthesis” value in data set [1] is “did not inhibit protein synthesis”. For the same molecule, the “decrease in MCMV DNA copy number in blood compared to infected control” value with MCMV [2] (0.1 or 1 mg/kg orally every three days from 24 h or 72 h after infection, day 14) is listed as 2 to 4 log10. Also, in the data set on MCMV [2] (setting [6]), the “reduction of viral PFUs in liver” value is 3–6 fold and the “reduction of viral PFUs in salivary gland” value is 4–6 fold. Besides, in the data set on MCMV [2] (mouse), the “tolerability in mouse CMV model” value is listed as “well-tolerated”. Besides, the “expression of HCMV proteins IE1/2, UL44 and pp65” value in data set [3] is given as “significantly reduced”. In the data set on MCMV [4] (emetine 75 nM, 0.5 and 2 million cells/plate), the “MCMV plaque reduction and cell density” value was “cell-density dependent response”. The EC50 in the data set on MCMV [4] (in Mus musculus, MCMV, plaque assay, read-out: Mean EC50 ± SD) came out at 0.036 µM. The molecule further gave a CC50 at 72 h in data set [5] of 8 ± 0.56 µM.
